One may read the IC50 as the concentration that gives 50% inhibition. Higher therefore signals a need for much substance. By solubility is commonly meant the dissolved amount per volume that the medium holds. A low value points to little dissolved substance.

For one data set, the system named is HER2. Description: JIMT-1 xenograft, HER2 levels. In kind it is in vivo, mice. As to conditions: 4 mg/kg. The method, then: (§1) Xenograft mice were generated to evaluate the anticancer effects of the candidate compound. NCI-N87 and JIMT-1 cells (5×10^6 cells), dissolved in 100 μL of 1× phosphate-buffered saline (PBS), were subcutaneously injected into the right flanks of 5-week-old female athymic nude mice (Envigo, USA) or 4-week-old female NOD-SCID mice (Koatech, South Korea). When the tumors reached a volume of 90-100 mm^3, the mice were randomized into designated groups. For the NCI-N87 xenograft, intravenous administration was performed six times at 3-day intervals. For the JIMT-1 xenograft, intraperitoneal administration was performed eight times at 3-day intervals. […] Tumor size changes were monitored until the mean tumor size in the control group reached 2,000-2,500 mm^3. On day 28 for the NCI-N87 xenograft and day 46 for the JIMT-1 xenograft, the mice were sacrificed, and tumors were excised to determine relative tumor sizes. Tumor length (L) and width (W) were measured with calipers, and tumor volume was calculated using the formula: […]
(§2) For immunohistochemistry (IHC) analysis, tumors from the xenograft models were prepared as paraffin-embedded sections. […] The control group was counterstained with hematoxylin, and the IHC staining was evaluated under an optical microscope at 200× magnification.

The test system of data set [1] is HCT15 (HER2-positive colorectal cancer cell line). Nature of the data set: antiproliferative effect, HCT15. It counts as cell-based. As to conditions: Homo sapiens, HCT-15, 72 hours.
A further data set concerns TZMB-sensitive cells. Nature of the data set: treatment of TZMB-sensitive cells. It counts as cell-based. As to conditions: parent BT474 and NCI-N87.
Another data set relates to JIMT-1 xenograft. Nature of the data set: JIMT-1 xenograft, tumor growth. In kind it is in vivo, mice. As to conditions: 4 mg/kg, intraperitoneal, eight times at 3-day intervals. The method, then:
as §1

Data set [2] relates to c-PARP, c-caspase 7, bcl-2. Description: pro- and anti-apoptotic marker levels. It counts as cell-based. On the procedure:
For western blot analysis, cells were seeded in a 6-well plate and lysed in 1×RIPA lysis buffer (Cell Signaling, USA) containing 1% 0.1 M [COMPOUND LEFT OUT] and 1% 100× protease inhibitor cocktail solution (Genedepot, USA). Total protein levels were standardized using the Pierce™ BCA Protein Assay Kit (Thermo Fisher Scientific, USA) and a microplate reader (Tecan Group Ltd., Switzerland). A total of 20 μg of protein was loaded onto a 10-15% SDS-PAGE acrylamide gel and transferred to a 0.2 μm PVDF membrane (Pall Life Science, USA). The membrane was blocked with 5% skim milk or 5% BSA, and the membrane was cultured with primary antibodies (purchased from Thermo Fisher, Cell Signaling, Santa Cruz, Novus, or MBL) at room temperature for 3 hours or overnight at 4 °C. The blot was washed three times with Tris-buffered saline containing 0.1% Tween20 (1×TBST) and incubated with an HRP-conjugated secondary antibody (GeneTex, USA). Protein bands were detected using ECL solution reagents (GE Healthcare, USA) and the LAS-3000 imaging system (Fuji Photo Film Co., Ltd., Japan), and captured images were analyzed using Multi-Gauge software (Fuji Photo Film Co. Ltd.). […]
Specifically, 5×10^5 NCI-N87 cells were seeded in 60 mm dishes and cultured until they reached 70-80% confluence. […] Cell cycle analysis was performed using a fluorescence-activated cell sorting (FACS) device (BD Biosciences, USA).

Data set [3] concerns Ki-67. Nature of the data set: IHC of NCI-N87 xenograft tumors, Ki-67. As to conditions: vs control group. It counts as in vivo, mice. On the procedure:
as §1, §2

Another data set is described as follows: permeability. In kind it is in vitro ADME.
Data set [4] is described as follows: JIMT-1 xenograft, body weight. As to conditions: 4 mg/kg. In kind it is in vivo, mice.
Description: Xenograft mice were generated to evaluate the anticancer effects of the candidate compound. […] When the tumors reached a volume of 90-100 mm^3, the mice were randomized into designated groups. […] For the JIMT-1 xenograft, intraperitoneal administration was performed eight times at 3-day intervals. […] Tumor size changes were monitored until the mean tumor size in the control group reached 2,000-2,500 mm^3. On day 28 for the NCI-N87 xenograft and day 46 for the JIMT-1 xenograft, the mice were sacrificed, and tumors were excised to determine relative tumor sizes. Tumor length (L) and width (W) were measured with calipers, and tumor volume was calculated using the formula:
To assess resistance-avoidance effects in vivo, JIMT-1 xenograft mice were treated with 4 mg/kg of the candidate compound or TZMB.
The nature of another data set: solubility. As to conditions: pH 7. It counts as physicochemical.
The target of another data set is T1, MED23-ELK1 PPI (Homo sapiens, UniProt Q9ULK4).
T1 construct: co-immunoprecipitation of ELK1, probably endogenous
Nature of the data set: immunoprecipitation, MED23-ELK1 PPI. In kind it is cell-based. On the procedure:
NCI-N87 cells from a gastric cancer cell line were seeded in a 100 mm cell culture dish and cultured until they reached 60-70% confluence. The cultured cells were transfected with p3Xflag-myc-CMV26-empty or p3Xflag-myc-CMV26-MED23^WT plasmids using Lipofectamine® 2000 (Invitrogen, USA). After transfection, YK1 (5 μM) was added 12 hours post-transfection, and the cells were cultured for 12 hours. A total of 750 μg of cell lysate was incubated with 20 μL of FLAG-agarose bead slurry (Sigma Aldrich, USA) on a rotator at 4 °C for 4 hours. The sample was centrifuged at 12,000 rpm for 1 minute to precipitate the beads. After removing the supernatant, the remaining beads were washed three times with 200 μL of lysis buffer (RIPA).
After removing the final supernatant, the beads were eluted by boiling with 2× sample buffer at 98 °C for 5 minutes. The immunoprecipitated proteins were loaded, separated by SDS-PAGE, and analyzed by Western blotting.

The next data set relates to HER2 protein. Description: HER2 protein expression. It counts as cell-based. As to conditions: dose-dependent. The method, then:
For western blot analysis, cells were seeded in a 6-well plate and lysed in 1×RIPA lysis buffer (Cell Signaling, USA) containing 1% 0.1 M [COMPOUND LEFT OUT] and 1% 100× protease inhibitor cocktail solution (Genedepot, USA). Total protein levels were standardized using the Pierce™ BCA Protein Assay Kit (Thermo Fisher Scientific, USA) and a microplate reader (Tecan Group Ltd., Switzerland). A total of 20 μg of protein was loaded onto a 10-15% SDS-PAGE acrylamide gel and transferred to a 0.2 μm PVDF membrane (Pall Life Science, USA). The membrane was blocked with 5% skim milk or 5% BSA, and the membrane was cultured with primary antibodies (purchased from Thermo Fisher, Cell Signaling, Santa Cruz, Novus, or MBL) at room temperature for 3 hours or overnight at 4 °C. The blot was washed three times with Tris-buffered saline containing 0.1% Tween20 (1×TBST) and incubated with an HRP-conjugated secondary antibody (GeneTex, USA). Protein bands were detected using ECL solution reagents (GE Healthcare, USA) and the LAS-3000 imaging system (Fuji Photo Film Co., Ltd., Japan), and captured images were analyzed using Multi-Gauge software (Fuji Photo Film Co. Ltd.). The preparation of cell lysates for subsequent analyses was performed using the same method as described for western blot analysis.

Data set [5] concerns Ki-67. Nature of the data set: JIMT-1 xenograft, Ki-67. As to conditions: 4 mg/kg, vs TZMB-treated group. It counts as in vivo, mice. The method, then:
as §1, §2

Converted amounts (≈) assume the structure as drawn.

T1 sequence (Q9ULK4 whole entry): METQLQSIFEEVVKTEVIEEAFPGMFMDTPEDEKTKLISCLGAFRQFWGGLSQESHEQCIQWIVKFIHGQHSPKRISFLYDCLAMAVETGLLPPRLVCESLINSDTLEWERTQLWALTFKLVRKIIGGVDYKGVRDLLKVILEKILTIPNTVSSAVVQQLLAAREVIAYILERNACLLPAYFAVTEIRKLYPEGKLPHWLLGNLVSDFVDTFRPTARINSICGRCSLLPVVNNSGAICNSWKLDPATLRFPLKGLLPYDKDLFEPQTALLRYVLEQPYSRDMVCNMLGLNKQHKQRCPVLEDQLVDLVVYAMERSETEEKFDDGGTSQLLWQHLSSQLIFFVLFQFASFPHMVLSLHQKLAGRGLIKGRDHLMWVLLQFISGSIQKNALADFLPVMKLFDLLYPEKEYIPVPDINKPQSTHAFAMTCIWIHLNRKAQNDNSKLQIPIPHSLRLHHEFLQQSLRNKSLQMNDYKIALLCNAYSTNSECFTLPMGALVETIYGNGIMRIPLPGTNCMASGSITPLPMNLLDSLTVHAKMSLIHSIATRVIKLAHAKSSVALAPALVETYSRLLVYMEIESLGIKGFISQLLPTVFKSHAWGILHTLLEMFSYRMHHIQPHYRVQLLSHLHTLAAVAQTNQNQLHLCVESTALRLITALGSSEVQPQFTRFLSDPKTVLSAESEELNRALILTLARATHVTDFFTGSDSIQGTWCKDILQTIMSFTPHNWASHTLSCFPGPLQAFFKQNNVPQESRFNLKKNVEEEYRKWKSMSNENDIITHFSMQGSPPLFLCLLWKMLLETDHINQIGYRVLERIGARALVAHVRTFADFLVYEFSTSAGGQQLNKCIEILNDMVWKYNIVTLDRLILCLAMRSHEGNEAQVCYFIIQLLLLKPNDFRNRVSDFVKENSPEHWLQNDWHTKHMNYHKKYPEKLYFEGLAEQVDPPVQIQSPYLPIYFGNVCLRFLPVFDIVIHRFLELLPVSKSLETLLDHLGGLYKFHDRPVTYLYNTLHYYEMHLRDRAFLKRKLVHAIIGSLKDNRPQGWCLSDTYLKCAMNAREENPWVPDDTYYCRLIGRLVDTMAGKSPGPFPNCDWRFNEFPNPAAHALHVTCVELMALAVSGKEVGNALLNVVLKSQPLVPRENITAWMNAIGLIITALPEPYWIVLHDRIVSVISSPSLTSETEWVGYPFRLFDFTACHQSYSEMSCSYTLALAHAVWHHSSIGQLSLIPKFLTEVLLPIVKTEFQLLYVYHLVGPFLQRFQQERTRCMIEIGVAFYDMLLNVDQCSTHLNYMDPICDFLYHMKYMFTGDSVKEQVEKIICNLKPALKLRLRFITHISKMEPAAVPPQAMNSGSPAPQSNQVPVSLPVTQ
Description for TZMB-sensitive cells: The ability of the candidate compound to overcome trastuzumab resistance was evaluated.

As for `CC(=O)N1N=C(c2cccc(O)c2)CC1c1ccc(Cl)cc1` (stereo not shown) [Compound 15, 1-[5-(4-Chlorophenyl)-3-(3-hydroxyphenyl)-4,5-dihydropyrazol-1-yl]-ethanone], the HER2 levels entry in the data set on HER2 was “significant reduction in HER2 levels”. This compound also yielded an IC50 in data set [1] of 7.66 ± 0.04 µM. For the same compound, in the data set on TZMB-sensitive cells, the “anticancer effect in TZMB-sensitive cells” value is on record as “significant anticancer effects not only in TZMB-sensitive cells but also in TZMB-resistant cells”. In addition, the “tumor growth and volume” value in the data set on JIMT-1 xenograft was “significant decrease in tumor growth and volume”. Besides, in data set [2], the “anti-apoptotic marker bcl-2” value was “reduced the levels of the anti-apoptotic marker bcl-2”; the “pro-apoptotic markers c-PARP and c-caspase 7” value is “induced an increase in the pro-apoptotic markers c-PARP and c-caspase 7”. Moreover, in the data set on Ki-67 [3], the “proliferation marker Ki-67” value was “significant decrease”. For the same compound, in the data set “permeability”, the permeability result is listed as “reasonable”. The body weight entry in [4] is “remained generally consistent”. For the same compound, in “solubility”, the solubility stood at 103.2 ± 0.6 µg/mL (≈ 328 µM). Moreover, the “PPI inhibitory effect on MED23-ELK1” value on MED23-ELK1 PPI is recorded as “did not inhibit these PPIs”. Further, the “HER2 protein expression level” value in the data set on HER2 protein is “significantly downregulate HER2 gene and protein expression levels in a dose-dependent manner”. Also, the “proliferation marker Ki-67” value in the data set on Ki-67 [5] was “significantly reduced in the candidate compound-treated group compared to the TZMB-treated group”.

The values are drawn from US20260373119A1, “NOVEL COMPOUND, AND COMPOSITION FOR PREVENTING OR TREATING HER2-POSITIVE CANCER, COMPRISING SAME” (EWHA UNIVERSITY - INDUSTRY COLLABORATION FOUNDATION, priority 2022, published 2026).
